Assay results from article PMC6685981, “Avenanthramide A triggers potent ROS-mediated anti-tumor effects in colorectal cancer by directly targeting DDX3” (Cell Death & Disease, 2019).

Target: T1, DDX3 (Homo sapiens, UniProt O00571)
T1 construct: gene DDX3X; full length, His-tagged DDX3
Assay: SPR (Biacore T200) with immobilized purified His-DDX3; also malachite green ATPase inhibition at […]
Type: binding

T1 sequence (O00571 whole entry): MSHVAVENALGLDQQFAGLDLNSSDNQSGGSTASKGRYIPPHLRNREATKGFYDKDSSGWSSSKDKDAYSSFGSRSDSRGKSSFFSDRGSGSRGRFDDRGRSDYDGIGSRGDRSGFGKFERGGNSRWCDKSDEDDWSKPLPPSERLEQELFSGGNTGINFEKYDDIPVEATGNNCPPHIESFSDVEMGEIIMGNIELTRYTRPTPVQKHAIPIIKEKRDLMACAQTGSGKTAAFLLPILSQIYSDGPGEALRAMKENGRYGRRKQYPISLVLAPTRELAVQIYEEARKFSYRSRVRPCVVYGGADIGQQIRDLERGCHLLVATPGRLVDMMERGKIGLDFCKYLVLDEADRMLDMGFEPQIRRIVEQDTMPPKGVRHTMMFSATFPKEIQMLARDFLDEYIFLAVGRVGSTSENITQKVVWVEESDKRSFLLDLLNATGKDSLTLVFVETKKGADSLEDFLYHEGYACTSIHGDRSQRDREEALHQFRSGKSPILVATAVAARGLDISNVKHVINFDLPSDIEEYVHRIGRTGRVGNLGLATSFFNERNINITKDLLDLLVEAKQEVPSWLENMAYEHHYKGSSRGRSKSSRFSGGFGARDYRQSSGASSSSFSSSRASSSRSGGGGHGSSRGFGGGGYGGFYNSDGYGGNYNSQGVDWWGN

`O=C(/C=C/c1ccc(O)cc1)Nc1ccc(O)cc1C(=O)O` [AVN A, Avenanthramide A] showed a Kd of 8.8 µM.
